Key:
Carboplatin = compound: C1CC(C1)(C(=O)[O-])C(=O)[O-].N.N.[Pt+2] [Carboplatin]; conditions: max 10 µM
Procedure, shortened: (§1)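 Following 24 hours at 37°C and 5% CO2, cancer cell lines in 1536-well plates with 7.5 μl DMEM/F12 or RPMI and 10% FBS were dosed for 72 hours, final DMSO typically being 0.2%. CellTiter-Glo 2.0 luminescence, scaled between blank-well and DMSO-well means, gave the viability readout. Dose responses were fitted to a two-parameter logistic curve with a non-linear mixed effects model, and the single-agent IC50 was derived from this fit.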

AZD5363 = compound: C1CN(CCC1(C(=O)N[C@@H](CCO)C2=CC=C(C=C2)Cl)N)C3=NC=NC4=C3C=CN4 [AZD5363]; conditions: max 10 µM
Procedure, shortened: as §1

AZD1775 = compound: C=CCn1c(=O)c2cnc(Nc3ccc(N4CCN(C)CC4)cc3)nc2n1-c1cccc(C(C)(C)O)n1 [AZD1775]; conditions: max 3 µM
Procedure, shortened: as §1

Trametinib = compound: CC(=O)Nc1cccc(-n2c(=O)n(C3CC3)c(=O)c3c(Nc4ccc(I)cc4F)n(C)c(=O)c(C)c32)c1 [Trametinib]; conditions: max 1 µM
Procedure, shortened: as §1

Paclitaxel = compound: CC(=O)O[C@H]1C(=O)[C@@]2(C)[C@H]([C@H](OC(=O)c3ccccc3)[C@]3(O)C[C@H](OC(=O)[C@H](O)[C@@H](NC(=O)c4ccccc4)c4ccccc4)C(C)=C1C3(C)C)[C@]1(OC(C)=O)CO[C@@H]1C[C@@H]2O [Paclitaxel]; conditions: max 3 µM
Procedure, shortened: as §1

Palbociclib = compound: CC(=O)c1c(C)c2cnc(Nc3ccc(N4CCNCC4)cn3)nc2n(C2CCCC2)c1=O [Palbociclib]; conditions: max 10 µM
Procedure, shortened: as §1

AZD1390 = compound: CC(C)n1c(=O)n(C)c2cnc3cc(F)c(-c4ccc(OCCCN5CCCCC5)nc4)cc3c21 [AZD1390]; conditions: max 0.3 µM
Procedure, shortened: as §1

Venetoclax = compound: CC1(C)CCC(CN2CCN(c3ccc(C(=O)NS(=O)(=O)c4ccc(NCC5CCOCC5)c([N+](=O)[O-])c4)c(Oc4cnc5[nH]ccc5c4)c3)CC2)=C(c2ccc(Cl)cc2)C1 [Venetoclax]; conditions: max 1 µM
Procedure, shortened: as §1

Dasatinib = compound: CC1=C(C(=CC=C1)Cl)NC(=O)C2=CN=C(S2)NC3=CC(=NC(=N3)C)N4CCN(CC4)CCO [Dasatinib]; conditions: max 2 µM
Procedure, shortened: as §1

SG3199 = compound: CC1=CN2[C@@H](C1)C=NC3=CC(=C(C=C3C2=O)OC)OCCCCCOC4=C(C=C5C(=C4)N=C[C@@H]6CC(=CN6C5=O)C)OC [SG3199]; conditions: max 0.001 µM
Procedure, shortened: as §1

AZD2811 = compound: CCN(CCO)CCCOc1ccc2c(Nc3cc(CC(=O)Nc4cccc(F)c4)[nH]n3)ncnc2c1 [AZD2811]; conditions: max 1 µM
Procedure, shortened: as §1

SN-38 = compound: CCc1c2c(nc3ccc(O)cc13)-c1cc3c(c(=O)n1C2)COC(=O)[C@]3(O)CC [SN-38]; conditions: max 0.3 µM
Procedure, shortened: as §1

AZD0156 = compound: CN(C)CCCOc1ccc(-c2ccc3ncc4c(c3c2)n(C2CCOCC2)c(=O)n4C)cn1 [AZD0156]; conditions: max 3 µM
Procedure, shortened: as §1

AZD4320 = compound: CN(CC[C@H](CSC1=CC=CC=C1)NC2=C(C=C(C=C2)S(=O)(=O)NC(=O)C3=CC=C(C=C3)N4CCC(CC4)[C@H](C5=CC=CC=C5C6=CC=C(C=C6)Cl)O)S(=O)(=O)C(F)(F)F)CCO [AZD4320]; conditions: max 1 µM
Procedure, shortened: as §1

Alisertib = compound: COc1cc(Nc2ncc3c(n2)-c2ccc(Cl)cc2C(c2c(F)cccc2OC)=NC3)ccc1C(=O)O [Alisertib]; conditions: max 10 µM
Procedure, shortened: as §1

Etoposide = compound: COc1cc([C@@H]2c3cc4c(cc3[C@@H](O[C@@H]3O[C@@H]5CO[C@@H](C)O[C@H]5[C@H](O)[C@H]3O)[C@H]3COC(=O)[C@H]23)OCO4)cc(OC)c1O [Etoposide]; conditions: max 10 µM
Procedure, shortened: as §1

Gefitinib = compound: COc1cc2ncnc(Nc3ccc(F)c(Cl)c3)c2cc1OCCCN1CCOCC1 [Gefitinib]; conditions: max 10 µM
Procedure, shortened: as §1

Prexasertib = compound: COc1cccc(OCCCN)c1-c1cc(Nc2cnc(C#N)cn2)n[nH]1 [Prexasertib]; conditions: max 1 µM
Procedure, shortened: as §1

Doxorubicin = compound: COc1cccc2c1C(=O)c1c(O)c3c(c(O)c1C2=O)C[C@@](O)(C(=O)CO)C[C@@H]3O[C@H]1C[C@H](N)[C@H](O)[C@H](C)O1 [Doxorubicin]; conditions: max 1 µM
Procedure, shortened: as §1

AZD5153 = compound: COc1nnc2ccc(N3CCC(c4ccc(OCCN5CCN(C)C(=O)[C@H]5C)cc4)CC3)nn12 [AZD5153]; conditions: max 1 µM
Procedure, shortened: as §1

Lapatinib = compound: CS(=O)(=O)CCNCc1ccc(-c2ccc3ncnc(Nc4ccc(OCc5cccc(F)c5)c(Cl)c4)c3c2)o1 [Lapatinib]; conditions: max 10 µM
Procedure, shortened: as §1

AZD8186 = compound: C[C@@H](Nc1cc(F)cc(F)c1)c1cc(C(=O)N(C)C)cc2c(=O)cc(N3CCOCC3)oc12 [AZD8186]; conditions: max 10 µM
Procedure, shortened: as §1

Crizotinib = compound: C[C@@H](Oc1cc(-c2cnn(C3CCNCC3)c2)cnc1N)c1c(Cl)ccc(F)c1Cl [Crizotinib]; conditions: max 10 µM
Procedure, shortened: as §1

Savolitinib = compound: C[C@@H](c1ccc2nccn2c1)n1nnc2ncc(-c3cnn(C)c3)nc21 [Savolitinib]; conditions: max 1 µM
Procedure, shortened: as §1

AZD6738 = compound: C[C@@H]1COCCN1C2=NC(=NC(=C2)C3(CC3)[S@](=N)(=O)C)C4=C5C=CNC5=NC=C4 [AZD6738]; conditions: max 10 µM
Procedure, shortened: as §1

AZD5991 = compound: Cc1c2c(nn1C)CSCc1cc(n(C)n1)CSc1cc(c3ccccc3c1)OCCCc1c(C(=O)O)n(C)c3c-2c(Cl)ccc13 [AZD5991]; conditions: max 1 µM
Procedure, shortened: as §1

AZD7648 = compound: Cc1cc2ncnn2cc1Nc1ncc2c(n1)n(C1CCOCC1)c(=O)n2C [AZD7648]; conditions: max 10 µM
Procedure, shortened: as §1

Taselisib = compound: Cc1nc(-c2cn3c(n2)-c2ccc(-c4cnn(C(C)(C)C(N)=O)c4)cc2OCC3)n(C(C)C)n1 [Taselisib]; conditions: max 10 µM
Procedure, shortened: as §1

Selumetinib = compound: Cn1cnc2c(F)c(Nc3ccc(Br)cc3Cl)c(C(=O)NOCCO)cc21 [Selumetinib]; conditions: max 10 µM
Procedure, shortened: as §1

SRA737 = compound: N#Cc1cnc(Nc2cc(NC[C@H]3CNCCO3)c(C(F)(F)F)cn2)cn1 [SRA737]; conditions: max 10 µM
Procedure, shortened: as §1

MK-2206 = compound: NC1(c2ccc(-c3nc4ccn5c(=O)[nH]nc5c4cc3-c3ccccc3)cc2)CCC1 [MK-2206]; conditions: max 10 µM
Procedure, shortened: as §1

Gemcitabine = compound: Nc1ccn([C@@H]2O[C@H](CO)[C@@H](O)C2(F)F)c(=O)n1 [Gemcitabine]; conditions: max 0.3 µM
Procedure, shortened: as §1

[1] = compound: O=C(Nc1ccc2[nH]nc(-c3ccncc3)c2c1)[C@@H]1CCN(CC(=O)N2CCN(c3ccc(-c4ncccn4)cc3)CC2)C1; conditions: max 5 µM
Procedure, shortened: as §1

Olaparib = compound: O=C(c1cc(Cc2n[nH]c(=O)c3ccccc23)ccc1F)N1CCN(C(=O)C2CC2)CC1 [Olaparib]; conditions: max 10 µM
Procedure, shortened: as §1

5-Fluorouracil = compound: O=c1[nH]cc(F)c(=O)[nH]1 [5-Fluorouracil]; conditions: max 20 µM
Procedure, shortened: as §1

Cell Line | IC50, cell viability 72 h (Carboplatin) | IC50, cell viability 72 h (AZD5363) | IC50, cell viability 72 h (AZD1775) | IC50, cell viability 72 h (Trametinib) | IC50, cell viability 72 h (Paclitaxel) | IC50, cell viability 72 h (Palbociclib) | IC50, cell viability 72 h (AZD1390) | IC50, cell viability 72 h (Venetoclax) | IC50, cell viability 72 h (Dasatinib) | IC50, cell viability 72 h (SG3199) | IC50, cell viability 72 h (AZD2811) | IC50, cell viability 72 h (SN-38) | IC50, cell viability 72 h (AZD0156) | IC50, cell viability 72 h (AZD4320) | IC50, cell viability 72 h (Alisertib) | IC50, cell viability 72 h (Etoposide) | IC50, cell viability 72 h (Gefitinib) | IC50, cell viability 72 h (Prexasertib) | IC50, cell viability 72 h (Doxorubicin) | IC50, cell viability 72 h (AZD5153) | IC50, cell viability 72 h (Lapatinib) | IC50, cell viability 72 h (AZD8186) | IC50, cell viability 72 h (Crizotinib) | IC50, cell viability 72 h (Savolitinib) | IC50, cell viability 72 h (AZD6738) | IC50, cell viability 72 h (AZD5991) | IC50, cell viability 72 h (AZD7648) | IC50, cell viability 72 h (Taselisib) | IC50, cell viability 72 h (Selumetinib) | IC50, cell viability 72 h (SRA737) | IC50, cell viability 72 h (MK-2206) | IC50, cell viability 72 h (Gemcitabine) | IC50, cell viability 72 h [1] | IC50, cell viability 72 h (Olaparib) | IC50, cell viability 72 h (5-Fluorouracil)
SW13 (Other Solid Carcinomas) | > 10000 nM | > 10000 nM | > 3000 nM | 804 nM | 6.09 nM | > 10000 nM | > 300 nM | > 1000 nM | 1250 nM | > 1 nM | > 1000 nM | 5.19 nM | > 3000 nM | > 1000 nM | > 10000 nM | 4890 nM | > 10000 nM | > 1000 nM | 394 nM | > 1000 nM | 4460 nM | > 10000 nM | > 10000 nM | > 1000 nM | > 10000 nM | 212 nM | > 10000 nM | > 10000 nM | > 10000 nM | > 10000 nM | > 10000 nM | 27.1 nM | > 5000 nM | > 10000 nM | > 20000 nM
TGW (Neuroblastoma) | > 10000 nM | > 10000 nM | 571 nM | > 1000 nM | 108 nM | > 10000 nM | > 300 nM | > 1000 nM | > 2000 nM | > 1 nM | > 1000 nM | 50.5 nM | > 3000 nM | 127 nM | 162 nM | > 10000 nM | > 10000 nM | 27.7 nM | 521 nM | > 1000 nM | > 10000 nM | > 10000 nM | 6840 nM | > 1000 nM | 7370 nM | > 1000 nM | > 10000 nM | > 10000 nM | > 10000 nM | > 10000 nM | > 10000 nM | 159 nM | > 5000 nM | > 10000 nM | > 20000 nM

— the supplement of paper PMC11061612
